Format in all cases: cell-based
The target in assay [1] is T1, human prostanoid EP1 receptor (Homo sapiens, UniProt P34995).
T1 construct: expressed in transfected cells
T1 sequence (P34995 1-402): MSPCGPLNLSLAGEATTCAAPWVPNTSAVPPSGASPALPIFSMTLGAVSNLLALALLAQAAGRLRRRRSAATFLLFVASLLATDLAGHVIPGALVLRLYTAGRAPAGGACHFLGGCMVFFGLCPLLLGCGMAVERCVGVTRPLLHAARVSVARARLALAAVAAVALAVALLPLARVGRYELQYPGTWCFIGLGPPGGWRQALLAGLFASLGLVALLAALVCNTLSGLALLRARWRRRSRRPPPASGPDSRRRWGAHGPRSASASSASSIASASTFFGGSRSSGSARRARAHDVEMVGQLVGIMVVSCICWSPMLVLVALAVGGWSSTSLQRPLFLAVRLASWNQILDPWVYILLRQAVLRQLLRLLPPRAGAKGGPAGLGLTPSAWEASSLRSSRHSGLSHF
Nature of the assay: FLIPR Ca2+ signaling PG antagonist assay, EP1 stable cell line. To be noted: HEK-293 EBNA cells, human recombinant EP1, no exogenous G-protein; standard agonist PGE2. How it is done: (§1) The above compounds were tested for PG antagonist activity as follows using human recombinant prostanoid receptor (DP1, EP1-4, FP, IP and TP) stable cell lines: In order to measure the response of Gs and Gi coupled prostanoid receptors as a Ca^2+ signal, chimeric G protein cDNAs were used. Stable cell lines over-expressing human prostanoid DP1, EP1-4, FP, IP, and TP receptors were established as follows:
(§2) Briefly, human prostanoid DP1, EP2, and EP4 receptor cDNAs were co-transfected with chimeric Gqs cDNA containing a haemagglutanin (HA) epitope; human prostanoid EP3 receptors were co-transfected with chimeric Gqi-HA; human EP1, FP, IP, and TP receptor cDNAs were expressed with no exogenous G-proteins. Gqs and Gqi chimeric cDNAs (Molecular Devices, Sunnyvale, Calif., U.S.A.), as well as cDNAs of prostanoid receptors, were cloned into a pCEP4 vector with a hygromycin B selection marker. Transfection into HEK-293 EBNA (Epstein-Barr virus nuclear antigen) cells was achieved by the FuGENE 6 transfection Reagent (Roche Applied Science, Indianapolis, Ind., USA). Stable transfectants were selected according to hygromycin resistance. Because Gqs and Gqi contained an HA epitope, G-protein expression was detected by Western blotting analysis using anti-mouse HA monoclonal antibody and horseradish peroxidase (HRP)-conjugated secondary antibody, while functional expression of prostanoid receptors was detected by FLIPR screening (Matias et al., 2004). These stable cell lines were validated using previously published antagonists at 10 μM against serial dilutions of standard agonists by FLIPR functional assays for Ca^2+ Signaling (as described below).
(§3) Ca^2+ signaling studies were performed using a FLIPR TETRA system (Molecular Devices, Sunnyvale, Calif., USA) in the 384-format. This is a high-throughput instrument for cell-based assays to monitor Ca^2+ signaling associated with GPCRs and ion channels. Cells were seeded at a density of 5×10^4 cells/well in BioCoat poly-D-lysine coated, black wall, clear bottom 384-well plates (BD Biosciences, Franklin lakes, NJ, USA) and allowed to attach overnight in an incubator at 37° C. The cells were then washed twice with HBSS-HEPES buffer (Hanks' balanced salt solution without bicarbonate and phenol red, 20 mM HEPES, pH 7.4) using an ELx405 Select CW Microplate Washer (BioTek, Winooski, Vt., USA). After 60 min of dye-loading in the dark using the Ca^2+-sensitive dye Fluo-4AM (Invitrogen, Carlsbad, Calif., USA), at a final concentration of 2×10^−6M, the plates were washed 4 times with HBSS-HEPES buffer to remove excess dye and leaving 50 μl of buffer in each well. The plates were then placed in the FLIPR TETRA instrument and allowed to equilibrate at 37° C. Compounds were added in a 25 μl volume to each well to give final concentrations of 0.1 μM, 0.3 μM, 1 μM, 3 μM, 10 μM, and 30 μM; or 0.067 μM, 0.1 μM, 0.2 μM, 0.3 μM, 0.67 μM, and 1 μM for cells over-expressing TP receptors. After 4.5 minutes, a 7-point serial dilution of the standard agonist for the corresponding receptor, in a 25 μl volume was injected at the final concentrations from 10^−11M to 10^−5M in 10-fold serial dilution increments for cells expressing human recombinant DP1, EP1, EP2, EP3, EP4, FP, and IP receptors. The dose range for the standard agonist for human recombinant TP receptors was from 10^−12M to 10^−6M. HBSS-HEPES buffer was used as the negative control for the standard agonists. Cells were excited with LED (light emitting diode) excitation at 470-495 nm and emission was measured through an emission filter at 515-575 nm. Assay plates were read for 3.5 minutes using the FLIPR^TETRA. The peak increase in fluorescence intensity was recorded for each well. On each plate, negative controls, dose response of positive controls, and co-treatments of antagonist-agonist for each dose were in triplicates. Standard agonists were as follows: DP=BW 245C, EP1-EP4=PGE2, FP=17-phenyl-PGF2α, IP=Cicaprost, and TP=U-46619. […]

Assay [2] deals with T2, human prostanoid TP receptor (Homo sapiens, UniProt P21731).
T2 construct: expressed in transfected cells
T2 sequence (P21731 1-343): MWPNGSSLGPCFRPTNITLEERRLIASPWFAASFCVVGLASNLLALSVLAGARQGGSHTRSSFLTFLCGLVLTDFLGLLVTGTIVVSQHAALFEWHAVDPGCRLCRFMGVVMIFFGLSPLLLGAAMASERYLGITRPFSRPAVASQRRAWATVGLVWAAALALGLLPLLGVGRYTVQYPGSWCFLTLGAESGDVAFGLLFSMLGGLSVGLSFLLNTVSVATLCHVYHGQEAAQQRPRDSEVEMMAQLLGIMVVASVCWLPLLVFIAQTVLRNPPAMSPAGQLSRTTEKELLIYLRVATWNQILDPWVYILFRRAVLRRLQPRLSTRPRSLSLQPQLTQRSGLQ
Nature of the assay: FLIPR Ca2+ signaling PG antagonist assay, TP stable cell line. To be noted: HEK-293 EBNA cells, human recombinant TP, no exogenous G-protein; standard agonist U-46619. As for the experimental part: as §1, §2, §3

Assay [3] addresses T3, human prostanoid EP2 receptor (Homo sapiens, UniProt P43116).
T3 construct: expressed in transfected cells
Nature of the assay: FLIPR Ca2+ signaling PG antagonist assay, EP2 stable cell line. The settings on record: HEK-293 EBNA cells, human recombinant EP2 with chimeric Gqs; standard agonist PGE2. How it is done:
as §1, §2, §3

Each structure is given as a SMILES string.

T3 sequence (P43116 whole entry): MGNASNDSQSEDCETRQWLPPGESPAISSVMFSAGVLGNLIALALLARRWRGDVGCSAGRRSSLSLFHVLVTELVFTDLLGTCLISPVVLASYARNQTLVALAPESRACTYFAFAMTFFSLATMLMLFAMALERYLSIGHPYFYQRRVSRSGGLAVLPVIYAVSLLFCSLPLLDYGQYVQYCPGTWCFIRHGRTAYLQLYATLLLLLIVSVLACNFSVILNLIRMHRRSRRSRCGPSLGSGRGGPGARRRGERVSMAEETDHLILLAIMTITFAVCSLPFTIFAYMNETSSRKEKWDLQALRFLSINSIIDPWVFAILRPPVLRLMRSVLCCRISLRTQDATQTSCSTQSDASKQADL

For `CCC(CC)COc1ccc(Cl)cc1Cn1ccc2cc(C(=O)O)ccc21` [Example 1, 1-[5-Chloro-2-(2-Ethyl-Butoxy)-Benzyl]-1H-Indole-5-Carboxylic Acid], the Kb (in general, the affinity of an antagonist, worked out from how it opposes an agonist) worked out at 180 nM in assay [1], 150 nM in assay [2] and 8700 nM in assay [3].
On the same counts, the results for `CCC(CC)COc1ccc(Cl)cc1Cn1ncc2cc(C(=O)O)ccc21` [Example 2, 1-[5-Chloro-2-(2-Ethyl-Butoxy)-Benzyl]-1H-Indazole-5-Carboxylic ACID] are 140 nM, 110 nM and 2900 nM.
As for `CC(C)COc1ccc(Br)cc1Cn1ncc2cc(C(=O)O)ccc21` [Example 4], the Kb in assay [1] was determined as 6 nM; in assay [2], 2 nM; in assay [3], 1800 nM.
On the same counts, the results for `CCC(CC)COc1ccc(Cl)cc1Cn1ncc2ccc(C(=O)O)cc21` [Example 6] are at least 10000 nM, 150 nM and at least 10000 nM.
For the compound `CC(C)COc1ccc(Br)cc1Cn1ncc2c(C(=O)O)cccc21` [Example 7, 1-(5-Bromo-2-Isobutoxy-Benzyl)-1H-Indazole-4-Carboxylic Acid], the results for the Kb in assay [1], in assay [2] and in assay [3] were 45 nM, 20 nM and 4400 nM, respectively.
With `O=C(O)c1ccc2c(cnn2Cc2cc(Cl)ccc2OCc2ccccc2)c1` [Example 8, 1-(2-Benzyloxy-5-Chloro-Benzyl)-1H-Indazole-5-Carboxylic Acid], the values for the Kb in assay [1], in assay [2] and in assay [3] were 220 nM, 2100 nM and 5000 nM, respectively.
In the case of `O=C(O)c1ccc2c(cnn2Cc2cc(Cl)ccc2OCc2ccc(Cl)cc2)c1` [Example 9, 1-[5-Chloro-2-(4-Chloro-Benzyloxy)-Benzyl]-1H-Indazole-5-Carboxylic Acid], the Kb amounted to 90 nM in assay [1] and 3200 nM in assay [3]. In addition, the “TP (Kb, PG antagonist activity)” value in assay [2] is listed as “PAgonist”.
Take `O=C(O)c1ccc2c(cnn2Cc2cc(Cl)ccc2OCC2CCCC2)c1` [Example 10, 1-(5-Chloro-2-Cyclopentylmethoxy-Benzyl)-1H-Indazole-5-Carboxylic Acid]: the figures for the Kb in assay [1], in assay [2] and in assay [3] were 50 nM, 20 nM and 500 nM, respectively.
The like results for `O=C(O)c1ccc2c(cnn2Cc2cc(Cl)ccc2OCC2CC2)c1` [Example 11, 1-(5-Chloro-2-Cyclopropylmethoxy-Benzyl)-1H-Indazole-5-Carboxylic Acid] were, in that order, 120 nM, 120 nM and 2000 nM.
On the same counts, the results for `O=C(O)c1ccc2c(cnn2Cc2cc(Br)ccc2OCc2ccccc2)c1` [Example 12, 1-(2-Benzyloxy-5-Bromo-Benzyl)-1H-Indazole-5-Carboxylic Acid] are 360 nM, 44 nM and 7900 nM.
In the case of `O=C(O)c1ccc2c(cnn2Cc2cc(Br)ccc2OCc2ccc(Cl)cc2)c1` [Example 13, 1-[5-Bromo-2-(4-Chloro-Benzyloxy)-Benzyl]-1H-Indazole-5-Carboxylic Acid], the Kb in assay [1] turned out to be 50 nM; in assay [2], 900 nM; in assay [3], 1900 nM.
The like results for `O=C(O)c1ccc2c(cnn2Cc2cc(Br)ccc2OCC2CCCC2)c1` [Example 14, 1-(5-Bromo-2-Cyclopentylmethoxy-Benzyl)-1H-Indazole-5-Carboxylic Acid] were, in that order, 20 nM, 600 nM and 400 nM.
The like results for `O=C(O)c1ccc2c(cnn2Cc2cc(Br)ccc2OCC2CC2)c1` [Example 15, 1-(5-Bromo-2-Cyclopropylmethoxy-Benzyl)-1H-Indazole-5-Carboxylic Acid] were, in that order, 190 nM, 20 nM and 3300 nM.
Take `CC(C)COc1ccc(Cl)cc1Cn1cc2cc(C(=O)O)ccc2n1` [Example 16, 2-(5-Chloro-2-Isobutoxy-Benzyl)-2H-Indazole-5-Carboxylic Acid]: the Kb is 90 nM in assay [1], 400 nM in assay [2] and at least 10000 nM in assay [3].
With `CC(C)COc1ccc(Br)cc1Cn1cc2cc(C(=O)O)ccc2n1` [Example 17, 2-(5-Bromo-2-Isobutoxy-Benzyl)-2H-Indazole-5-Carboxylic Acid], the Kb in assay [1] was 40 nM; in assay [2], 3300 nM; in assay [3], at least 10000 nM.
For `CC(C)COc1ccc(C(F)(F)F)cc1Cn1ncc2cc(C(=O)O)ccc21` [Example 18], the Kb in assay [1] is 40 nM; in assay [2] it was 4 nM; in assay [3], at least 10000 nM.
For the compound `CC1(COc2ccc(Br)cc2Cn2ncc3cc(C(=O)O)ccc32)CC1` [Example 19], the Kb in assay [1] turned out to be 12 nM; in assay [2] it was 50 nM; in assay [3] it was 8800 nM.
On the same counts, the results for `CC(C)COc1ccc(OC(F)(F)F)cc1Cn1ncc2cc(C(=O)O)ccc21` [Example 20, 1-(2-Isobutoxy-5-Trifluoromethoxy-Benzyl)-1H-Indazole-5-Carboxylic Acid] are 30 nM, 50 nM and at least 10000 nM.
For the compound `Cc1nn(Cc2cc(Br)ccc2OCC(C)C)c2ccc(C(=O)O)cc12` [Example 21, 1-(5-Bromo-2-Isobutoxy-Benzyl)-3-Methyl-1H-Indazole-5-Carboxylic Acid], the Kb in assay [1] came to 14 nM; in assay [2], 13 nM; in assay [3], 3500 nM.
As for `Cc1nn(Cc2cc(OC(F)(F)F)ccc2OCC(C)C)c2ccc(C(=O)O)cc12` [Example 22, 1-(2-Isobutoxy-5-Trifluoromethoxy-Benzyl)-3-Methyl-1H-Indazole-5-Carboxylic Acid], the Kb in assay [1] is 16 nM; in assay [2], 5 nM; in assay [3] it was at least 10000 nM.
For the compound `CCC(CC)COc1ccc(Cl)cc1Cn1nc(C)c2cc(C(=O)O)ccc21` [Example 23, 1-[5-Chloro-2-(2-Ethyl-Butoxy)-Benzyl]-3-Methyl-1H-Indazole-5-Carboxylic Acid], the Kb in assay [1] is 30 nM; in assay [2], 1 nM; in assay [3], 7100 nM.

Source of the values: patent publication US10988474B2, “Compounds acting at multiple prostaglandin receptors giving a general anti-inflammatory response” (ALLERGAN, INC., priority 2011, dated 2021).
